{
  "source": "patent US7595300B2",
  "about": "“7-quinolyl ketolide antibacterial agents” (priority 2005, dated 2009)",
  "test_system": "P. acnes",
  "assay": "MIC, NCCLS Reference Agar Dilution Method for anaerobic bacteria",
  "type": "cell-based, Propionibacterium acnes",
  "procedure": "Minimum inhibitory concentrations (“MICs”) were determined by the NCCLS Reference Agar Dilution Method (M11-A5, Vol. 21, No. 2) for anaerobic bacteria. A panel of 84 antibiotic-susceptible and resistant strains of Propionibacteria from distinct geographic locations were selected. Following revival from frozen stocks, each strain was purity plated onto Wilkins Chalgren Agar, pH 7.2 (Oxoid, UK), and the appropriate antibiotic resistance/susceptibility phenotype was confirmed by antibiotic disc testing. Each strain was subjected to an agar dilution MIC assay. […] The inocula for each batch of strains were prepared from 7-day old Wilkins Chalgren Agar plate cultures by resuspension of colonies in Wilkins Chalgren Anaerobe broth, pH 7.2 (Oxoid, UK) to an optical density (OD600) of 0.2±0.02. The inoculum (1.0-2.0 μL) for each strain was applied to a Wilkins Chalgren Agar MIC plate in a grid pattern using a Multipoint Inoculator (Denley, UK). All agar plates were incubated at 37° C. for 3 days under anaerobic conditions in AnaeroPack 7 liter rectangular jars (Mitsubishi Gas Chemical Company, Inc., Japan).",
  "data": [
    {"smiles": "CC1CC(N(C)C)C(O)C(O[C@@H]2[C@@H](C)C(=O)[C@](C)(F)C(=O)O[C@H](CCF)[C@@]3(C)OC(=O)N[C@@H]3[C@@H](C)C(=O)[C@H](C)C[C@@]2(C)OC/C=C/c2ccc3cccnc3c2)O1", "note": "(stereo partly shown) [Compound (III), 6-O-(1-(7-quinolyl)-3-propenyl)-11-amino-11-deoxy-3-(descladinosyl)-3-oxo-2,15-difluoroerythromycin A-11,12-cyclic carbamate]", "values": [
      {"measurement": "MIC range", "setting": "marker RNA 1058, phenotype TetR", "value": "0.06 to 1", "unit": "µg/mL"},
      {"measurement": "MIC range", "setting": "marker RNA 1058/2058, phenotype TetR, EryR", "value": "1 to 2", "unit": "µg/mL"},
      {"measurement": "MIC range", "setting": "marker RNA 1058/2059, phenotype TetR, EryR", "value": 0.5, "unit": "µg/mL"},
      {"measurement": "MIC range", "setting": "marker RNA 2057, phenotype EryR", "value": 0.06, "unit": "µg/mL"},
      {"measurement": "MIC range", "setting": "marker RNA 2058, phenotype EryR", "value": "0.125 to 2", "unit": "µg/mL"},
      {"measurement": "MIC range", "setting": "marker RNA 2058, phenotype EryR, TetR", "value": "0.06 to 1", "unit": "µg/mL"},
      {"measurement": "MIC range", "setting": "marker RNA 2059, phenotype EryR", "value": "0.125 to 2", "unit": "µg/mL"},
      {"measurement": "MIC range", "setting": "marker ermX, phenotype EryR", "value": "32 to 128", "unit": "µg/mL"},
      {"measurement": "MIC range", "setting": "marker none, phenotype none", "value": 0.06, "unit": "µg/mL"},
      {"measurement": "MIC range", "setting": "marker unknown, phenotype ClindR", "value": 0.06, "unit": "µg/mL"}
    ]}
  ]
}
